Source: patent US7332492B2, “Amino substituted dibenzothiophene derivatives for the treatment of disorders mediated by NP Y5 receptor” (AstraZeneca AB, priority 2000, dated 2008)

Biological target: T1, human neuropeptide Y5 receptor (Homo sapiens, UniProt Q15761)
T1 construct: starting at base 56 through to base 1393, to express the protein 10 amino acid residues shorter at the amino terminal end; made in house; host or cells: High 5 insect cells (baculovirus, pFASTBAC1 / Bac-to-Bac); membrane preparation
T1 sequence (Q15761 1-445): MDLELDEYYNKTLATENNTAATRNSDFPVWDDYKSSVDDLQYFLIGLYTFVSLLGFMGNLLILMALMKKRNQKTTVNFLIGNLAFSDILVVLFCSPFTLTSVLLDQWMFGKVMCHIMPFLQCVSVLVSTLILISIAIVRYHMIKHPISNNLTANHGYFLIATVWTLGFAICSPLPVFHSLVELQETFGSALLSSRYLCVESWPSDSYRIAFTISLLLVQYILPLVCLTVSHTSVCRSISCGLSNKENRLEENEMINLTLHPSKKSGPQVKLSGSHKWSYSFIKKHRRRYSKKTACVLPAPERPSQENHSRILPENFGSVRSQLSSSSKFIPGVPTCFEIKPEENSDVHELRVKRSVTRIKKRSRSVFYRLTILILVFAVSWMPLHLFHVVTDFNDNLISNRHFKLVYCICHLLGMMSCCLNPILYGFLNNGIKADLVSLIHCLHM
Assay: neuropeptide Y5 receptor binding assay (125I PYY displacement)
Settings: 125I PYY binding, membranes of High 5 insect cells expressing human NPY5 receptor
Description: The activity of compounds of the invention was measured in a neuropeptide Y5 receptor binding assay as follows. Compounds were also tested in binding assays for the neuropeptide Y1 and neuropeptide Y2 receptors. Activity against these 2 receptors is contraindicated for a neuropeptide Y5 antagonist.
a) Expression of Human Neuropeptide Y5 Receptor in High 5™ Insect Cells.
High 5™ insect cells were obtained from Invitrogen (catalogue No B855-02) and stored in liquid nitrogen. Cells were revived from liquid nitrogen storage and grown at 28° C. in 100 ml ExCell 405 (JRH Biosciences) serum free medium in a 250 ml conical flask (Corning) agitated at 140 rpm in an Innova 4330 orbital shaker (New Brunswick Scientific). Cultures were routinely sub-cultured every 3-4 days.
High 5™ insect cells were transfected with the human NPY5 receptor as follows. PCR primers were designed against the huNPY5 receptor sequence, Genbank Accession Number U56079 [Gerald et. al. (1996) Nature 382, 168-171], but starting at base 56 through to base 1393, to express the protein 10 amino acid residues shorter at the amino terminal end [see Borowsky et. al. (1998) Regulatory Peptides 75-76, 45-53]. These primers were used to amplify the huNPY5 receptor from human placenta genomic DNA by PCR. […]

`CC(CN1CCOCC1)C(=O)Nc1ccc2sc3ccccc3c2c1` (stereo not shown) [Example 16] showed an IC50 of 94 nM.
